Test system: Liver Injuries Induced by CCl4
Assay: Liver injuries induced by CCl4 in mice (GSP, AST/ALT, HAI)
Format: in vivo
Description: In the normal control, animals were administered with normal saline by intraperitoneal injection. In the control group of CCl4 induced liver injuries, animals were intraperitoneally injected with 10 ml/kg CCl4 (40% in corn oil) to induce hepatotoxicity. In the experimental group, animals were intraperitoneally injected with 10 ml/kg CCl4 (40% in corn oil) to induce hepatotoxicity, and 4 hours later, different ingredients of the present invention were administered by tube feeding. Blood was collected from the mice before administration with the ingredients of the present invention or at 24 hours after administration with the ingredients of the present invention for AST/ALT assays. Finally, animals were sacrificed at day 2 and blood were collected for AST/ALT assay and histological analysis was performed.
On the other hand, other experimental groups of mice were fed with the ingredients of the present invention for 12 weeks and the mice were subjected to GSP tests.
Liver damage is quantified by measuring plasma AST and ALT activity. AST and ALT are common indicators of hepatotoxicity and are measured by using the Synchron LXi 725 system (Beckman Instruments, U.S.).
Following scarification of the rats, histological analysis was performed. Liver samples were fixed with 10% phosphate-buffered formalin, dehydrated an embedded in paraffin, Sections were prepared in 5 μm thickness and then stained with hematoxylin and eosin and subjected to Periodic acid Schiff stain (PAS). The stained sections were observed under the optic microscope.
After the study was completed, all rats were subjected to GSP test. Rats were i.v. injected with 0.4 g/ml BW galactose solution 0.5 g/kg within 30 seconds and one blood sample was collected at 5, 10, 15, 30, 45 and 60 minutes post injection from the tail vein. Colorimetric galactose dehydrogenase is used to quantify the concentration of galactose and the test concentration ranges from 50 to 1,000 μg/ml. The within-day variation of each concentration is calculated using standard deviation and coefficient of variation (CV) and the maximum allowable coefficient of variation is 10% CV, whereas day-to-day variation is examined by comparing the slope and intercept of calibration curves. The GSP is the blood galactose concentration obtained 60 seconds after stopping the 30-second injection.
All data are represented in mean±standard deviation (SD) and the results are calculated using ANOVA to determine the significance. Statistical Package of the Social Science program (Version 13, SPSS Inc.) is used for calculations followed by post hoc test to examine the least significant difference for multiple comparisons so as to confirm the significant differences between groups and the average difference between groups was significant p<0.05.

[1] = CCl4-induced liver injuries, dose less than or equivalent to 100 mg per person

`OC[C@@H](O)[C@@H](O)[C@H](O)[C@H](O)CO` [Mannitol] was tested, and the ALT [1] was 77 ± 22 IU/L, the AST [1] was 91 ± 28 IU/L and the GSP [1] was 290 ± 78 mg/L. For the same molecule, the “Total HAI score” value [1] was 0.8 ± 0.5 and the “effect on CCl4-induced liver injuries” value (mice, CCl4) was “liver injuries can be improved”.
